Assay results: patent US7045551B2 (Bristol-Myers Squibb Company, priority 2002, dated 2006)
pEC50: −log10 of the molar value.

What was measured:
[1] = biological target: voltage-gated K+ channel KCNQ2 (Homo sapiens, UniProt O43526); assay: Thallium flux assay for openers of KCNQ potassium channels; format: cell-based; conditions: 10 point concentration series, concentration required to yield 50% of the maximal response
Excerpt: A thallium flux assay was used to detect and characterize openers of KCNQ potassium channels. The thallium assay is generally described in International application WO 02/31508 published Apr. 18, 2002. More specifically, the thallium influx assay to detect compounds that block or open the voltage-gated K^+ channel KCNQ2 is described in Example IV of the published WO 02/31508 application.
For data analysis, the amplitude of the average of the negative controls was subtracted from all wells. The amplitudes of the test compounds were then compared to the value of four standard deviations of the negative control wells. The lowest concentration of a test compound sufficient to generate a signal amplitude greater than or equal to four standard deviations from the amplitude of the negative controls was defined as the minimal active concentration.
For generating EC50 values, compounds were serially diluted in 1:3 volume increments to produce a 10 point concentration series. EC50 values were calculated by fitting the resulting amplitudes to a single-site logistic equation. EC50 was defined as the concentration of test compound required to yield 50% of the maximal response. Maximal response (Maximal opening) was the largest signal amplitude above the negative control generated by any concentration of a test compound.

mKCNQ2 channels = biological target: T1, mKCNQ2 channels (Mus musculus, UniProt Q9Z351); assay: Whole-cell patch-clamp recordings of mKCNQ2 currents; format: cell-based; conditions: for EC50: HEK 293 stable cell line expressing mKCNQ2, @ −40 mV, room temperature; for Imax (%): HEK 293 stable cell line expressing mKCNQ2, Imax from Hill-type curve fit
T1 construct: expressed in transfected cells
Experimental: Whole-cell patch-clamp recordings were made from an HEK 293 stable cell line expressing mKCNQ2 channels, maintained in culture for 1–2 days. Patch pipettes had initial resistances of 2.5–4 MΩ. Currents were recorded with an EPC-9 amplifier (HEKA, Lambrecht, Germany) controlled with software (Pulse, HEKA) run on a standard lab PC. Series resistance compensation was used during current recording, and set at 80%. The series resistance (R) and cell capacitance (C) were determined electronically by subtracting the capacitive currents at the onset and offset of a 5 mV voltage step. The cancellation of whole-cell capacitive transients was virtually complete in all cells. Analog current signals were low-pass filtered at 2.9 kHz using a four-pole Bessel filter −3 dB) and stored on a local network server computer at a sampling rate of […]. All recordings were performed at room temperature (20–22° C.). The pipette solution contained (mM): KCl, 150; CaCl2, 2.5; EGTA, 5; MgCl2, 1; HEPES, 10; pH to 7.3 with KOH, and Osmolality of 290–300 mOsm. The extracellular solution contained (mM): NaCl, 140; KCl, 2.5; CaCl2, 2.5; MgCl2, 1; glucose, 10; HEPES, 10; pH to 7.3 with NaOH, and Osmolality of 305–310 mOsm
Concentration response data were generated by measuring the difference in the steady-state amplitude of current in the presence of compound at the end of a 600 ms voltage-clamp step from a holding potential of −80 mV. The concentration-response data were fitted with Hill-type equations: I=Imax/(1+EC50/[A]^nH), where I is the steady-state current at a given concentration of agonist [A]; and Imax, EC50 and nH are parameters estimated from the curve fit. In some cases the concentration-response data were fitted with equations consisting of the sum of two Hill-type components. Current-voltage (I/V) relationships for agonist-evoked currents were obtained by performing 600 ms voltage steps (−110 mV to +40 mV) in the absence and presence of agonist.

O=C(/C=C/c1ccc(F)cc1F)N[C@H](c1ccc2ccccc2c1)[C@H](O)CO [Example 111, (1R,2S)-3-(2,4-Difluoro-phen-yl)-N-(2,3-dihydroxy-1-naph-thalen-2-yl-propyl)-acryl-amide]
pEC50 [1]: 6.01

O=C(/C=C/c1ccc(F)cc1F)N[C@@H](CO)c1ccc2ccccc2c1 [Example 55, (R)-3-(2,4-Difluoro-phen-yl)-N-(2-hydroxy-1-naph-thalen-2-yl-ethyl)-acryl-amide]
pEC50 [1]: 6.84

O=C(/C=C/c1cccc(F)c1)N[C@@H](CO)c1ccc2ccccc2c1 [Example 47, (R)-3-(3-Fluoro-phenyl)-N-(2-hy-droxy-1-naphthalen-2-yl-eth-yl)-acrylamide]
pEC50 [1]: 7.41

O=C(/C=C/c1ccc(F)c(F)c1)N[C@@H](CO)c1ccc2ccccc2c1 [Example 58, (R)-3-(3,4-Difluoro-phen-yl)-N-(2-hydroxy-1-naph-thalen-2-yl-ethyl)-acryl-amide]
pEC50 [1]: 6.05

O=C(/C=C/c1ccccc1)N[C@@H](CO)c1ccc2ccccc2c1 [Example 49]
pEC50 [1]: 6.45

O=C(/C=C/c1ccc(F)cc1)N[C@@H](CO)c1ccc2ccccc2c1 [Example 48, (R)-3-(4-Fluoro-phenyl)-N-(2-hy-droxy-1-naphthalen-2-yl-eth-yl)-acrylamide]
EC50 (mKCNQ2 channels): 0.619 µM
Imax (%) (mKCNQ2 channels): 981%
pEC50 [1]: 6.30

O=C(/C=C/c1ccccc1Cl)N[C@H](c1ccc2ccccc2c1)[C@H](O)CO [Example 106, (1R,2S)-3-(2-Chloro-phenyl)-N-(2,3-dihydroxy-1-naph-thalen-2-yl-propyl)-acryl-amide]
pEC50 [1]: 5.84

O=C(/C=C/c1ccc(F)cc1F)NC(CO)c1cccc(N2CCOCC2)c1 (stereo in doubt) [Example 18, (R)-3-(2,4-Difluoro-phenyl)-N-[2-hydroxy-1-(3-morpho-lin-4-yl-phen-yl)-ethyl]-acrylamide]
EC50 (mKCNQ2 channels): 1.46 µM
Imax (%) (mKCNQ2 channels): 820%
